Assay results as given in patent US12568972B2, “Pyridazinol compounds and derivatives, preparation methods, herbicidal compositions and applications thereof” (Qingdao Kingagroot Chemical Compound Co., Ltd., priority 2018, dated 2026).

Tests used:
Test in all cases: Post-emergence test, weed control effect
Format in all cases: in vivo
Details in all cases: Dose 3000 g/ha, after 3 weeks
Amaranthus retroflexus = system: Amaranthus retroflexus
Summary of the method: (§1)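 Weeds sown in soil-filled pots and sprayed at 2-3 leaf stage (2-3 weeks after sowing) with compound in acetone/Tween-80/water plus 80% vegetable oil methyl ester synergist at 1500 g/ha. After 3 weeks in the greenhouse, fresh-weight growth inhibition scored on a 0-10 scale (10 = completely dead).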

Veronica polita = system: Veronica polita
Summary of the method: as §1

Chenopodiaceae = system: Chenopodiaceae
Summary of the method: as §1

Rorippa indica = system: Rorippa indica
Summary of the method: as §1

O=C(Oc1cc(C(F)(F)F)nnc1-c1ccc(C(F)(F)F)cc1)c1cccs1 [Compound 1-106]
10: weed control effect, Amaranthus retroflexus (activity level) (Amaranthus retroflexus) | weed control effect, Veronica polita (activity level) (Veronica polita) | weed control effect, Chenopodiaceae (activity level) (Chenopodiaceae) | weed control effect, Rorippa indica (activity level) (Rorippa indica)

Cc1cc(C(=O)Oc2cc(C(F)(F)F)nnc2-c2ccc(F)c(F)c2)no1 [Compound 1-107]
10: weed control effect, Amaranthus retroflexus (activity level) (Amaranthus retroflexus) | weed control effect, Veronica polita (activity level) (Veronica polita) | weed control effect, Chenopodiaceae (activity level) (Chenopodiaceae) | weed control effect, Rorippa indica (activity level) (Rorippa indica)

Cc1ncoc1C(=O)Oc1cc(C(F)(F)F)nnc1-c1ccc(F)c(F)c1 [Compound 1-108]
10: weed control effect, Amaranthus retroflexus (activity level) (Amaranthus retroflexus) | weed control effect, Veronica polita (activity level) (Veronica polita) | weed control effect, Chenopodiaceae (activity level) (Chenopodiaceae) | weed control effect, Rorippa indica (activity level) (Rorippa indica)

O=C(Oc1cc(C(F)(F)F)nnc1-c1ccc(F)cc1)c1ccno1 [Compound 1-109]
10: weed control effect, Amaranthus retroflexus (activity level) (Amaranthus retroflexus) | weed control effect, Veronica polita (activity level) (Veronica polita) | weed control effect, Chenopodiaceae (activity level) (Chenopodiaceae) | weed control effect, Rorippa indica (activity level) (Rorippa indica)

O=C(Oc1cc(C(F)(F)F)nnc1-c1ccc(F)c(F)c1)c1ccc(Cl)nc1 [Compound 1-110]
10: weed control effect, Amaranthus retroflexus (activity level) (Amaranthus retroflexus) | weed control effect, Veronica polita (activity level) (Veronica polita) | weed control effect, Chenopodiaceae (activity level) (Chenopodiaceae) | weed control effect, Rorippa indica (activity level) (Rorippa indica)

O=C(Oc1cc(C(F)(F)F)nnc1-c1ccc(Cl)cc1)c1cc(Cl)nc(Cl)n1 [Compound 1-111]
10: weed control effect, Amaranthus retroflexus (activity level) (Amaranthus retroflexus) | weed control effect, Veronica polita (activity level) (Veronica polita) | weed control effect, Chenopodiaceae (activity level) (Chenopodiaceae) | weed control effect, Rorippa indica (activity level) (Rorippa indica)

O=C(Oc1cc(C(F)(F)F)nnc1-c1ccc(F)c(F)c1)c1cnccn1 [Compound 1-112]
10: weed control effect, Amaranthus retroflexus (activity level) (Amaranthus retroflexus) | weed control effect, Veronica polita (activity level) (Veronica polita) | weed control effect, Chenopodiaceae (activity level) (Chenopodiaceae) | weed control effect, Rorippa indica (activity level) (Rorippa indica)

CCSc1ncccc1C(=O)Oc1cc(C(F)(F)F)nnc1-c1ccc(F)c(F)c1 [Compound 1-113]
10: weed control effect, Amaranthus retroflexus (activity level) (Amaranthus retroflexus) | weed control effect, Veronica polita (activity level) (Veronica polita) | weed control effect, Chenopodiaceae (activity level) (Chenopodiaceae) | weed control effect, Rorippa indica (activity level) (Rorippa indica)

O=C(Oc1cc(C(F)(F)F)nnc1-c1ccc(F)cc1)c1ccc2ccccc2c1 [Compound 1-114]
10: weed control effect, Amaranthus retroflexus (activity level) (Amaranthus retroflexus) | weed control effect, Veronica polita (activity level) (Veronica polita) | weed control effect, Chenopodiaceae (activity level) (Chenopodiaceae) | weed control effect, Rorippa indica (activity level) (Rorippa indica)

O=C(Oc1cc(C(F)(F)F)nnc1-c1ccc(F)c(F)c1)c1ccc2[nH]ccc2c1 [Compound 1-115]
10: weed control effect, Amaranthus retroflexus (activity level) (Amaranthus retroflexus) | weed control effect, Veronica polita (activity level) (Veronica polita) | weed control effect, Chenopodiaceae (activity level) (Chenopodiaceae) | weed control effect, Rorippa indica (activity level) (Rorippa indica)

O=C(Oc1cc(C(F)(F)F)nnc1-c1ccc(Cl)cc1)c1ccc2ccccc2n1 [Compound 1-116]
10: weed control effect, Amaranthus retroflexus (activity level) (Amaranthus retroflexus) | weed control effect, Veronica polita (activity level) (Veronica polita) | weed control effect, Chenopodiaceae (activity level) (Chenopodiaceae) | weed control effect, Rorippa indica (activity level) (Rorippa indica)

O=C(Oc1cc(C(F)(F)F)nnc1-c1ccccc1)c1ccc2occc2c1 [Compound 1-117]
10: weed control effect, Amaranthus retroflexus (activity level) (Amaranthus retroflexus) | weed control effect, Veronica polita (activity level) (Veronica polita) | weed control effect, Chenopodiaceae (activity level) (Chenopodiaceae) | weed control effect, Rorippa indica (activity level) (Rorippa indica)

O=C(Oc1cc(C(F)(F)F)nnc1-c1ccc(C(F)(F)F)cc1)c1cccc2c1OCO2 [Compound 1-118]
10: weed control effect, Amaranthus retroflexus (activity level) (Amaranthus retroflexus) | weed control effect, Veronica polita (activity level) (Veronica polita) | weed control effect, Chenopodiaceae (activity level) (Chenopodiaceae) | weed control effect, Rorippa indica (activity level) (Rorippa indica)

O=C(Oc1cc(C(F)(F)F)nnc1-c1ccc(F)cc1)c1cccc2ccsc12 [Compound 1-119]
10: weed control effect, Amaranthus retroflexus (activity level) (Amaranthus retroflexus) | weed control effect, Veronica polita (activity level) (Veronica polita) | weed control effect, Chenopodiaceae (activity level) (Chenopodiaceae) | weed control effect, Rorippa indica (activity level) (Rorippa indica)

O=C(Oc1cc(C(F)(F)F)nnc1-c1ccc(F)c(F)c1)c1cc2ccccc2o1 [Compound 1-120]
10: weed control effect, Amaranthus retroflexus (activity level) (Amaranthus retroflexus) | weed control effect, Veronica polita (activity level) (Veronica polita) | weed control effect, Chenopodiaceae (activity level) (Chenopodiaceae) | weed control effect, Rorippa indica (activity level) (Rorippa indica)

CCS(=O)(=O)Oc1cc(C(F)(F)F)nnc1-c1ccc(F)cc1 [Compound 1-121]
10: weed control effect, Amaranthus retroflexus (activity level) (Amaranthus retroflexus) | weed control effect, Veronica polita (activity level) (Veronica polita) | weed control effect, Chenopodiaceae (activity level) (Chenopodiaceae) | weed control effect, Rorippa indica (activity level) (Rorippa indica)

O=S(=O)(Oc1cc(C(F)(F)F)nnc1-c1ccc(C(F)(F)F)cc1)C1CC1 [Compound 1-122]
10: weed control effect, Amaranthus retroflexus (activity level) (Amaranthus retroflexus) | weed control effect, Veronica polita (activity level) (Veronica polita) | weed control effect, Chenopodiaceae (activity level) (Chenopodiaceae) | weed control effect, Rorippa indica (activity level) (Rorippa indica)

CCc1cccc(-c2nnc(C(F)(F)F)cc2OS(=O)(=O)CS(C)(=O)=O)c1 [Compound 1-123]
10: weed control effect, Amaranthus retroflexus (activity level) (Amaranthus retroflexus) | weed control effect, Veronica polita (activity level) (Veronica polita) | weed control effect, Chenopodiaceae (activity level) (Chenopodiaceae) | weed control effect, Rorippa indica (activity level) (Rorippa indica)

O=S(=O)(NCCCCl)Oc1cc(C(F)(F)F)nnc1-c1cccc(F)c1 [Compound 1-124]
10: weed control effect, Amaranthus retroflexus (activity level) (Amaranthus retroflexus) | weed control effect, Veronica polita (activity level) (Veronica polita) | weed control effect, Chenopodiaceae (activity level) (Chenopodiaceae) | weed control effect, Rorippa indica (activity level) (Rorippa indica)

CN1CCN(S(=O)(=O)Oc2cc(C(F)(F)F)nnc2-c2ccc(F)cc2)CC1 [Compound 1-125]
10: weed control effect, Amaranthus retroflexus (activity level) (Amaranthus retroflexus) | weed control effect, Veronica polita (activity level) (Veronica polita) | weed control effect, Chenopodiaceae (activity level) (Chenopodiaceae) | weed control effect, Rorippa indica (activity level) (Rorippa indica)

Cc1ccc(S(=O)(=O)Oc2cc(C(F)(F)F)nnc2-c2ccnc(F)c2)cc1 [Compound 1-126]
10: weed control effect, Amaranthus retroflexus (activity level) (Amaranthus retroflexus) | weed control effect, Veronica polita (activity level) (Veronica polita) | weed control effect, Chenopodiaceae (activity level) (Chenopodiaceae) | weed control effect, Rorippa indica (activity level) (Rorippa indica)
